# Molecular target: CETP (Homo sapiens (Human), UniProt P11597)
# Assay: In vitro radioactive assay of CETP-catalyzed CE and TG transfer (RTA assay), 95% human serum
# Type: biochemical
# Details: RTA assay in 95% human serum; read-out: RTA IC50 (CETP Inhibition)
# Description: In Vitro Radioactive Assays of CETP-Catalyzed CE and TG Transfer (RTA Assay)
# Reagents and sources are: [3H] cholesteryl oleate (GE #TRK.886), [3H] Triolein (Perkin-Elmer NET-431), Butylated hydroxyl toluene (Aldrich, #D4740-4), DOPC (Sigma, # P6354), Sodium Bromide (Fisher scientific #S255-500), PEG 8000 (Fisher, #BP233-1), and human HDL (Intracel Corp #RP-036).
# An in vitro assay for determining IC50's to identify compounds that inhibit CETP transfer activity is performed based on a modification of a published method (Morton and Zilversmit, (1981) A plasma inhibitor of triglyceride and cholesteryl ester transfer activities, J. Biol. Chem. 256(23), 11992-11995). The ability of inhibitors to alter CETP activity is performed using two different assays: one using recombinant CETP and one using an endogenous plasma source of CETP. Both assays measure the transfer of [3H] cholesteryl oleate or [3H] triolein from exogenous LDL to HDL.
# Radiolabeled donor particles are generated by first combining 100 μl of 200 μM butylated hydroxyl toluene in CHCl3, 216 μL of 21.57 mM DOPC in EtOH, and either 500 μCi [3H]-triolein (Perkin Elmer #NET-431) or 500 μCi [3H]-cholesteryl oleate (GE #TRK886) in a glass tube. Reagents are mixed, dried under nitrogen, and then resuspended in 2 mL of 50 mM Tris, 27 μM EDTA at pH 7.4. After a brief vortex, the solution is sonicated until clear and mixed with 20 mL of fresh human serum. The mixture is incubated overnight at 37° C. The [3H] labeled LDL substrate is separated at 1.063 g/ml density by sequential ultracentrifugal flotation in NaBr according to the method by (Havel, Eder et al. 1955; Chapman, Goldstein et al. 1981). Once isolated the particles are dialyzed 3× in CETP buffer (50 mM Tris, pH 7.4, 100 mM NaCl, 1 mM EDTA). Human HDL is purchased from Intracel and used as the acceptor particles.
# Transfer assays are performed in a 96 or 384-well v-bottom polypropylene plate. For the RTA using recombinant CETP (2% RTA), an assay cocktail is prepared with the final concentrations 128 μg/mL HDL, 20 nM rCETP, 2% human serum, and 1×CETP buffer. 1 μL of each test compound diluted in DMSO is added to 47 μL of assay cocktail per well and incubated at 37° C. for 1 hour. To initiate the transfer reaction, 2 μL radiolabeled LDL is added. After an additional 60 min of incubation at 37° C., the transfer action is terminated by precipitation of LDL with an equal volume of 20% W/V PEG 8000. The plates are centrifuged at 2000 rpm for 30 minutes at 4° C. A 40 μL aliquot of the HDL-containing supernatant is transferred to a Packard Optiplate™ with 200 μL of MicroScint™ 20. After mixing, plates are counted by liquid scintillation. Counts present in the supernatant for blanks (wells containing only HDL acceptor, CETP buffer and DMSO) are subtracted from those containing test compounds and used to correct for non-specific transfer.
# For the transfer assay using endogenous CETP from serum (95% RTA), the same procedure is used except that human serum is added such that a final concentration of serum of 95% of the total assay volume is achieved, yielding a concentration of approximately 15 nM endogenous CETP in the assay. This is then combined with HDL and CETP buffer and the reaction proceeds as above and is terminated as described.
# Comparison of the counts of samples with inhibitors to an uninhibited (DMSO only) positive control yield a percent inhibition. A plot of percent inhibition vs. log of inhibitor concentration, fit to a Sigmoidal 4 parameter equation is used to calculate IC50.
# Starting materials are commercially available or are made using known procedures or as shown below. The examples may be synthesized using the general schemes provided below. The data reported for the examples below were obtained using the RTA assay in 95% human serum.
# CETP, sequence (P11597 18-493 limits assumed): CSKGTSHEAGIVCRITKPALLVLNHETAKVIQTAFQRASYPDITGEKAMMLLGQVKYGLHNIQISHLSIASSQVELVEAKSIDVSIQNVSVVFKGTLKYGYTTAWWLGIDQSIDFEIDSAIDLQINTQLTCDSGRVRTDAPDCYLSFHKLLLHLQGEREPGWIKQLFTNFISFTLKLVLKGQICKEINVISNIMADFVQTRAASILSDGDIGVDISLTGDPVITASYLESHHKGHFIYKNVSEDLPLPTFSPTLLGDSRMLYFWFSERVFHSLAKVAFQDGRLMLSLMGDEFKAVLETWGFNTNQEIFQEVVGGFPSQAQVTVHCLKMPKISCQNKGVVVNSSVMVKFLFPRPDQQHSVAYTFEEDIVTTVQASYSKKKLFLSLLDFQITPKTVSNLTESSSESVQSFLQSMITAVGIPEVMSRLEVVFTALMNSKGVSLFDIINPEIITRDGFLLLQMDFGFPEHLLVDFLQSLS
row,Structure (SMILES),IC50
1,"COc1ncc(C(C)(O)C(F)(F)F)cc1-c1cnc(N2CC(F)C2)nc1CN1C(=O)O[C@H](c2cc(C(F)(F)F)cc(C(F)(F)F)c2)[C@@H]1C (mixture of isomers) [Example 16, (4S,5R)-5-[3,5-Bis(trifluoromethyl)phenyl]-3-{[2-(3-fluoroazetidin-1-yl)-5-{2-methoxy-5-[(2RS)-1,1,1-trifluoro-2-hydroxypropan-2-yl]pyridin-3-yl}pyrimidin-4-yl]methyl}-4-methyl-1,3-oxazolidin-2-one]",0.014 µM
2,"COc1ncc(-c2sc(C)nc2C)cc1-c1cnc(N2CC(F)C2)nc1CN1C(=O)O[C@H](c2cc(C(F)(F)F)cc(C(F)(F)F)c2)[C@@H]1C [Example 3, (4S,5R)-5-[3,5-Bis(trifluoromethyl)phenyl]-3-({5-[5-(2,4-dimethyl-1,3-thiazol-5-yl)-2-methoxypyridin-3-yl]-2-(3-fluoroazetidin-1-yl)pyrimidin-4-yl}methyl)-4-methyl-1,3-oxazolidin-2-one]",0.003 µM
3,COc1ncc(-c2c(C)nn(C)c2C)cc1-c1cnc(N2CC(F)C2)nc1CN1C(=O)O[C@H](c2cc(C(F)(F)F)cc(C(F)(F)F)c2)[C@@H]1C [Example 6],0.003 µM
4,COc1ncc(-c2c(C)noc2C)cc1-c1cnc(N2CC(F)C2)nc1CN1C(=O)O[C@H](c2cc(C(F)(F)F)cc(C(F)(F)F)c2)[C@@H]1C [Example 7],0.003 µM
5,COc1ncc(CCC(=O)O)cc1-c1cnc(N2CC(F)C2)nc1CN1C(=O)O[C@H](c2cc(C(F)(F)F)cc(C(F)(F)F)c2)[C@@H]1C [Example 8],0.092 µM
6,"COc1ncc(C(F)(F)F)cc1-c1cnc(N2CC(F)C2)nc1CN1C(=O)O[C@H](c2cc(C(F)(F)F)cc(C(F)(F)F)c2)[C@@H]1C [Example 9, (4S,5R)-5-[3,5-Bis(trifluoromethyl)phenyl]-3-({2-(3-fluoroazetidin-1-yl)-5-[2-methoxy-5-(trifluoromethyl)pyridin-3-yl]pyrimidin-4-yl}methyl)-4-methyl-1,3-oxazolidin-2-one]",0.014 µM
7,CCOc1ncc(C(F)(F)F)cc1-c1cnc(N2CC(F)C2)nc1CN1C(=O)O[C@H](c2cc(C(F)(F)F)cc(C(F)(F)F)c2)[C@@H]1C [Example 10],0.012 µM
8,"COc1ncc(C(C)C)cc1-c1cnc(N2CC(F)C2)nc1CN1C(=O)O[C@H](c2cc(F)cc(F)c2)[C@@H]1C [Example 14, (4S,5R)-5-(3,5-Difluorophenyl)-3-{[2-(3-fluoroazetidin-1-yl)-5-(5-isopropyl-2-methoxypyridin-3-yl)pyrimidin-4-yl]methyl}-4-methyl-1,3-oxazolidin-2-one]",0.016 µM
9,"COc1ncc(-c2c(C)n[nH]c2C)cc1-c1cnc(N2CC(F)C2)nc1CN1C(=O)O[C@H](c2cc(C(F)(F)F)cc(C(F)(F)F)c2)[C@@H]1C [Example 17, (4S,5R)-5-[3,5-Bis(trifluoromethyl)phenyl]-3-({5-[5-(3,5-dimethyl-1H-pyrazol-4-yl)-2-methoxypyridin-3-yl]-2-(3-fluoroazetidin-1-yl)pyrimidin-4-yl}methyl)-4-methyl-1,3-oxazolidin-2-one]",0.005 µM
10,"CCCn1nc(C)c(-c2cnc(OC)c(-c3cnc(N4CC(F)C4)nc3CN3C(=O)O[C@H](c4cc(C(F)(F)F)cc(C(F)(F)F)c4)[C@@H]3C)c2)c1C [Example 18, (4S,5R)-5-[3,5-Bis(trifluoromethyl)phenyl]-3-({5-[5-(3,5-dimethyl-1-propyl-1H-pyrazol-4-yl)-2-methoxypyridin-3-yl]-2-(3-fluoroazetidin-1-yl)pyrimidin-4-yl}methyl)-4-methyl-1,3-oxazolidin-2-one]",0.012 µM
11,CCn1nc(C)c(-c2cnc(OC)c(-c3cnc(N4CC(F)C4)nc3CN3C(=O)O[C@H](c4cc(C(F)(F)F)cc(C(F)(F)F)c4)[C@@H]3C)c2)c1C [Example 19],0.009 µM
12,COc1ncc(-c2c(C)nn(CC#N)c2C)cc1-c1cnc(N2CC(F)C2)nc1CN1C(=O)O[C@H](c2cc(C(F)(F)F)cc(C(F)(F)F)c2)[C@@H]1C [Example 21],0.018 µM
13,COc1ncc(-c2c(C)nn(CC(N)=O)c2C)cc1-c1cnc(N2CC(F)C2)nc1CN1C(=O)O[C@H](c2cc(C(F)(F)F)cc(C(F)(F)F)c2)[C@@H]1C [Example 22],0.022 µM
14,"COc1ncc(-c2c(C)n[nH]c2C)cc1-c1cnc(N2CC(F)(F)C2)nc1CN1C(=O)O[C@H](c2cc(C(F)(F)F)cc(C(F)(F)F)c2)[C@@H]1C [Example 23, (4S,5R)-5-[3,5-Bis(trifluoromethyl)phenyl]-3-({2-(3,3-difluoroazetidin-1-yl)-5-[5-(3,5dimethyl-1H-pyrazol-4-yl)-2-methoxypyridin-3-yl]pyrimidin-4-yl}methyl)-4-methyl-1,3-oxazolidin-2-one]",0.015 µM
15,COc1ncc(-c2c(C)n[nH]c2C)cc1-c1cnc(N2CC(O)C2)nc1CN1C(=O)O[C@H](c2cc(C(F)(F)F)cc(C(F)(F)F)c2)[C@@H]1C [Example 24],0.332 µM
16,COc1ncc(-c2c(C)n[nH]c2C)cc1-c1cnc(N2CCCC2)nc1CN1C(=O)O[C@H](c2cc(C(F)(F)F)cc(C(F)(F)F)c2)[C@@H]1C [Example 25],0.02 µM
17,COc1ncc(-c2c(C)n[nH]c2C)cc1-c1cnc(N2CCOCC2)nc1CN1C(=O)O[C@H](c2cc(C(F)(F)F)cc(C(F)(F)F)c2)[C@@H]1C [Example 26],0.023 µM
18,COc1ncc(-c2c(C)n[nH]c2C)cc1-c1cnc(N2CCC2)nc1CN1C(=O)O[C@H](c2cc(C(F)(F)F)cc(C(F)(F)F)c2)[C@@H]1C [Example 27],0.019 µM
19,"COc1ncc(C(C)C)cc1-c1cnc(N2CC(F)(F)C2)nc1CN1C(=O)O[C@H](c2cc(C(F)(F)F)cc(C(F)(F)F)c2)[C@@H]1C [Example 28, (4S,5R)-5-[3,5-Bis(trifluoromethyl)phenyl]-3-{[2-(3,3-difluoroazetidin-1-yl)-5-(5-isopropyl-2-methoxypyridin-3-yl)pyrimidin-4-yl]methyl}-4-methyl-1,3-oxazolidin-2-one]",0.005 µM
20,COc1ncc(C(C)C)cc1-c1cnc(N2[C@H](C)CC[C@H]2C)nc1CN1C(=O)O[C@H](c2cc(C(F)(F)F)cc(C(F)(F)F)c2)[C@@H]1C [Example 29],0.43 µM
21,COc1ncc(C(C)C)cc1-c1cnc(N2CCC[C@@H]2C)nc1CN1C(=O)O[C@H](c2cc(C(F)(F)F)cc(C(F)(F)F)c2)[C@@H]1C [Example 30],0.018 µM
22,COc1ncc(C(C)C)cc1-c1cnc(N2CCC2)nc1CN1C(=O)O[C@H](c2cc(C(F)(F)F)cc(C(F)(F)F)c2)[C@@H]1C [Example 31],0.005 µM
23,"COc1ncc(-c2c(C)cc(C(=O)O)cc2C)cc1-c1cnc(N2CC(F)C2)nc1CN1C(=O)O[C@H](c2cc(C(F)(F)F)cc(C(F)(F)F)c2)[C@@H]1C [Example 32, 4-{5-[4-({(4S,5R)-5-[3,5-Bis(trifluoromethyl)phenyl]-4-methyl-2-oxo-1,3-oxazolidin-3-yl}methyl)-2-(3-fluoroazetidin-1-yl)pyrimidin-5-yl]-6-methoxypyridin-3-yl}-3,5-dimethylbenzoic acid]",0.007 µM
24,"COc1ncc(-c2c(C)cc(-c3n[nH]c(=O)o3)cc2C)cc1-c1cnc(N2CC(F)C2)nc1CN1C(=O)O[C@H](c2cc(C(F)(F)F)cc(C(F)(F)F)c2)[C@@H]1C [Example 33, 5-(4-{5-[4-({(4S,5R)-5-[3,5-Bis(trifluoromethyl)phenyl]-4-methyl-2-oxo-1,3-oxazolidin-3-yl}methyl)-2-(3-fluoroazetidin-1-yl)pyrimidin-5-yl]-6-methoxypyridin-3-yl}-3,5-dimethylphenyl)-1,3,4-oxadiazol-2(3H)-one]",0.008 µM
